Reference: US20030144194A1, “Cancer treatment and prognosis” (priority 2000, published 2003)

What was measured:
HES-1 [1] = test: Western blot of HES-1 protein in nuclear extracts of breast cancer cell lines; assay type: cell-based; conditions: for effect on 17β-estradiol-mediated down regulation of HES-1 protein: antiestrogen together with 17β-estradiol, FIG. 1C
Description: FIG. 1(B) Regulation of HES-1 by 17β-estradiol in breast cancer cell lines; 50 μg of nuclear extract protein was used;
(§1) T47D cells were cultured in a 1:1 mixture of Hams F 12 and DME with 10% fetal bovine serum, MCF-7, MDA-MB-231 and COS-7 cells were cultured in DME with 10% fetal bovine serum. Before experiments with estrogen, the media were switched and phenol red free and DCC charcoal treated with serum were used. Culture conditions were set at 37° C., 5% CO2 and 100% humidity. For creation of tetracycline inducible stably transfected clones the tet-regulated expression system from Bibco BRL was used. A puromycin resistance gene was cloned into pTet TAk. T47D cells were then transfected with lipofectin (GibcoBRL) according to the manufacturer's instructions. Transfectants were selected with puromycin at 1 μg/ml. […] Transfectants were selected using G418 (Calbiochem) at 500 μg/ml. Cells lines stably transfected with tetracycline regulated expression constructs were grown in the presence of 1 μg/ml of tetracycline. At the time of induction the medium was removed and the cells were washed with PBS two times before adding new medium without tetracycline.
Nuclear extract and RNA preparation was carried out according to the protocol by Schreiber et al (E. Schreiber, et al., Nucleic Acids Res 17, 6419 (1989)) except that PBS was used instead of TBS and the following inhibitors were added: leupeptin at 1 μg/ml, PMSF at 0.2 mM, […] Na3VO4, 1 mM NaPPi, 1 mM NaF, 100 μM Na2MO4 (all from Sigma). Nuclear extracts were prepared from cells grown to a confluency of 60%-70% on a 150 mm culture dish. Protein content was determined by Bradford assay (BioRad).
(§2) Two peptides with identical sequence parts of HES-1 protein were synthesised and simultaneously injected into one rabbit (Genosys). The peptides were […] […] and […]. For Western blots, 100 μg of nuclear extract was separated on a 12% SDS-PAGE. Western blot analysis was performed according to standard protocols (Harlow and Lane, E. Harlow, and D. Lane, Cold Spring Harbour Laboratory Press, Cold Spring Harbour, N.Y., (1988)). HES-1 antibody was used at a dilution of 1:1000. The PCNA (C-10) antibody was from Santa Cruz and used at 1:1000. Donkey, anti-rabbit and sheep anti-mouse IgG HRP conjugated antibody (Amersham) were used at 1:10000. Antibody binding was visualised using ECL, Super Signal (Pierce).

T47D breast cancer cells = test: Proliferation assay, T47D cells stably transfected with tetracycline regulated FLAG HES-1 expression; assay type: cell-based
Description: (§3) FIG. 2 illustrates a proliferation assay T47D cells stably transfected with tetracycline regulated FLAG HES-1 expression. (A) Relative proliferation of two different clones HES-1(1) and HES-1(2) with inducible FLAG HES-1 expression, and two control clones. Tetracycline at 1 μg/ml and 17β-estradiol at 10 nM were used when stated. Data represents an average of six independent measurements. (B) Western blot of endogenous HES-1 and FLAG HES-1 expression in HES-1(1) and HES-1(2) cell lines with antibody against HES-1. PCNA Western blot on same extracts 50 μg of nuclear protein was used;
as §1
A proliferation determination kit from BioThema (A. Lundin, Methods Enzymol 305, 346-370 (1999)). The kit is based on measuring ATP and since the ATP level is constant between cells this can be used to evaluate the number of cells. The cells were grown on 24 well plates at 1000 cells/well. Treatment with hormone was in phenol red-free medium supplemented with 10% DCC treated fetal calf serum. […] Luciferase activity was measured using a Berthold luminometer.

[2] = test system: proliferating cell nuclear antigen (PCNA); test: PCNA Western blot on nuclear extracts of tet-regulated FLAG HES-1 T47D cells; assay type: cell-based
Description: as §3, §2

histone acetylation = conditions: MCF-7 breast cancer cells, Pasqualini et al (1989); cited from earlier work
HES-1 [3] = test: All-trans retinoic acid effect on 17β-estradiol-dependent down regulation of HES-1 expression in MCF-7 cells (Western blot); assay type: cell-based; conditions: 1 μM all-trans retinoic acid, 17β estradiol 0.1 and 1 nM, 3 days
Description: MCF-7 cells were grown on 150 mm plates to 70% confluency in DME medium supplemented with 10% FBS. The medium was then changed to phenolAred free DME supplemented with DCC treated FBS to which 17β estradiol 0.1 and 1 nM respectively and 1 μM of all-trans retinoic acid was added individually or in combination. The plates were then incubated for 3 days in a humidified incubator at 37° C. and 5% CO2. Nuclear extract was produced according to Schreiber et al (E. Schreiber et al (1989) Nucleic Acids Res 17: 6419). 50 μg of this nuclear extract was then run on SDS-PAGE and blotted over to nitrocellulose membrane Hybond C super (Amersham). HES-1 protein was then detected using HES-1 antibody.

[4] = biological target: T1, estrogen receptor α (ERα) (Homo sapiens, UniProt P03372); test: ERE TATA LUC reporter in COS-7 cells transfected with ERα; assay type: cell-based
T1 construct: FLAG; expressed in transfected cells; host or cells: COS-7
T1 sequence (P03372 1-595): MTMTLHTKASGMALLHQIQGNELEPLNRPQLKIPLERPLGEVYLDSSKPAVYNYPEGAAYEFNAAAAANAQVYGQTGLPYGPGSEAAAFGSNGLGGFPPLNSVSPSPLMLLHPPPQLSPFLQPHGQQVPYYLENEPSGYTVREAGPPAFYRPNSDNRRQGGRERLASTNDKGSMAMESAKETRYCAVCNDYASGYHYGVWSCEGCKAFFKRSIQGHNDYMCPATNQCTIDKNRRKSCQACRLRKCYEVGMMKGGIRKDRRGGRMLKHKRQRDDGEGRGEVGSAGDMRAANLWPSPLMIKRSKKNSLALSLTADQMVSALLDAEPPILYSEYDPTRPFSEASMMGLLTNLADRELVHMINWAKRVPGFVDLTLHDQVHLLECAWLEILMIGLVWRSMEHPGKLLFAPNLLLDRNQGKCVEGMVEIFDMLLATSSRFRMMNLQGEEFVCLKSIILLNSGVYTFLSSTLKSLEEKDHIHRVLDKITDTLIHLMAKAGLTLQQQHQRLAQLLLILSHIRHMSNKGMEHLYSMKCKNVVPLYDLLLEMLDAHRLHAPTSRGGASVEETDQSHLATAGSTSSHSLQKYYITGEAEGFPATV
Description: FIG. 5. Transfection of COS-7 cells with 3X ERE TATA LUC 1 μg and 100 ng of pcDNA3 FLAG ERα.
FIG. 8. Transient transfection of COS-7 cells using the ERE reporter vector ERE TATA LUC and expression vectors FLAG ERα and FLAG HES-1 and treated with E2 and the histone deacetylase inhibitor Trichostatin A (TSA).
Human ERα was epitope tagged with the artificial “FLAG” epitope using PCR cloning. The VP16 activation domain was fused to the N-tenninus of rat HES-1.

ERβ = biological target: T2, ERβ (Homo sapiens, UniProt Q92731); test: ERE TATA LUC reporter in COS-7 cells transfected with ERβ; assay type: cell-based; conditions: FIG. 9
T2 construct: FLAG; expressed in transfected cells; host or cells: COS-7
T2 sequence (Q92731 whole entry, species assumed): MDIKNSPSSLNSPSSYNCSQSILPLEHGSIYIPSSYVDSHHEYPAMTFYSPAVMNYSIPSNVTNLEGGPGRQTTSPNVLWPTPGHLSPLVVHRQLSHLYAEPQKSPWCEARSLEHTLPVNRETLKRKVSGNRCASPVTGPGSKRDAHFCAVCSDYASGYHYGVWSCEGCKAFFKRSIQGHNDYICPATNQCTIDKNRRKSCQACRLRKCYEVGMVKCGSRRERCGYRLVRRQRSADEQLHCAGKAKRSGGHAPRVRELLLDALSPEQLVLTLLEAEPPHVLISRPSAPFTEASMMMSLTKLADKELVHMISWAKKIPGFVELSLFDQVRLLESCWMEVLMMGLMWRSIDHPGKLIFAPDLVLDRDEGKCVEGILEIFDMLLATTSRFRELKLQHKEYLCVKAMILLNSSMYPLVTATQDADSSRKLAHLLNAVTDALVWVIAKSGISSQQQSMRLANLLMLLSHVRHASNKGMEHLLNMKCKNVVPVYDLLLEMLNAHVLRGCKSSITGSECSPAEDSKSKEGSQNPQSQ
Text: FIG. 9. Transient transfection of COS-7 cells using the ERE reporter vector ERE TATA LUC and expression vectors FLAG […] and FLAG HES-1 and treated with E2 and the histone deacetylase inhibitor Tricostatin A (TSA).

CMV promoter = conditions: L. D. Dion et al., Virology 231 (1997); cited from earlier work

C[C@]12CC[C@@H]3c4ccc(O)cc4CC[C@H]3[C@@H]1CC[C@@H]2O [17β-estradiol]
expressed protein levels of HES-1 (HES-1 [1]; MCF-7 breast cancer cells): suppress | 17β-estradiol-mediated suppression of HES-1 (HES-1 [1]; MDA-MB-231 breast cancer cells (lack ERα)): lack of 17β-estradiol-mediated suppression | expressed protein levels of HES-1 (HES-1 [1]; T47D breast cancer cells): suppress | stimulation of proliferation (T47D breast cancer cells; absence of tetracycline (with induced HES-1 expression), 17β-estradiol 10 nM): no 17β-estradiol stimulated proliferation | stimulation of proliferation (T47D breast cancer cells; presence of tetracycline (without induced HES-1 expression), 17β-estradiol 10 nM): two-fold stimulation | stimulation of proliferation (T47D breast cancer cells; two control cell lines with tetracycline-regulated vector lacking FLAG-HES-1): exhibited 17β-estradiol-stimulated proliferation | regulation of proliferation marker PCNA ([2]; absence of exogenous FLAG-HES-1 expression): upregulated twofold | regulation of proliferation marker PCNA ([2]; presence of exogenous FLAG-HES-1): no regulation | histone acetylation (histone acetylation): decreases

CC1=C(/C=C/C(C)=C/C=C/C(C)=C/C(=O)O)C(C)(C)CCC1 [all-trans retinoic acid]
effect on 17β-estradiol-dependent down regulation of HES-1 expression (HES-1 [3]): inhibits

CC(/C=C/C(=O)NO)=C\[C@@H](C)C(=O)c1ccc(N(C)C)cc1 [trichostatin A]
makes 4OH tamoxifen into an effective agonist on ERE TATA LUC ([4]; COS-7 cells treated with 5 ng/ml trichostatin A for 8 hrs): same result | 17β-estradiol response on addition of TSA together with HES-1 ([4]; COS-7 cells, ERα, FIG. 8): much larger response | 17β-estradiol response on addition of TSA in combination with HES-1 (ERβ): no significant difference | CMV promoter activity (CMV promoter): induce

CCCC(=O)O.COc1cccc(C#CCON=C2CN3CCC2C3)c1 (stereo not drawn) [n-butyrate]
CMV promoter activity (CMV promoter): induce

CC/C(=C(\c1ccc(O)cc1)c1ccc(OCCN(C)C)cc1)c1ccccc1 [4OH tamoxifen]
effect on 17β-estradiol-mediated down regulation of HES-1 protein (HES-1 [1]): prevented

O=C(c1ccc(OCN2CCCCC2)cc1)c1c(-c2ccc(O)cc2)sc2cc(O)ccc12 [raloxifen]
effect on 17β-estradiol-mediated down regulation of HES-1 protein (HES-1 [1]): prevented

C[C@]12CC[C@@H]3c4ccc(O)cc4C[C@@H](CCCCCCCCC[S+]([O-])CCCC(F)(F)C(F)(F)F)[C@H]3[C@@H]1CC[C@@H]2O (stereo partly drawn) [ICI 182,780]
effect on 17β-estradiol-mediated down regulation of HES-1 protein (HES-1 [1]): prevented
